{
  "source": "patent US11021688B2",
  "about": "“Derivation of human skin organoids from pluripotent stem cells” (INDIANA UNIVERSITY RESEARCH AND TECHNOLOGY CORPORATION, priority 2015, dated 2021)",
  "molecules": {"B1": {"name": "bone morphogenetic protein-4 (protein, UniProt P12644 293-408, looked up)", "Bone morphogenetic protein 4": "SPKHHSQRARKKNKNCRRHSLYVDFSDVGWNDWIVAPPGYQAFYCHGDCPFPLADHLNSTNHAIVQTLVNSVNSSIPKACCVPTELSAISMLYLDEYDKVVLKNYQEMVVEGCGCR", "notes": "agonist of BMP signaling"}},
  "assay_type_in_all_cases": "cell-based, human",
  "key": {"[1]": {"system": "WA25 hESC and mND2-0 hiPSC aggregates", "assay": "Keratinocyte (non-neural ectoderm) induction in hPSC aggregates in 3D culture", "conditions": "n=40 aggregates per cell line across 4 experiments", "protocol": "We sought to develop a novel human non-neural induction protocol that could generate skin organoids. Human pluripotent stem cells of the WA25 cell line were dissociated in Essential 8 (E8) culture medium into single cells. Approximately 5000 cells were plated in each well of a 96-well V-bottom plate. Following 24 hours in culture, pluripotent cell aggregates that formed were transferred to 96-well U-bottom plates and cultured in a differentiation medium in the presence of Matrigel. This was considered “day 0” of differentiation (see FIG. 1). In comparing our mouse pluripotent stem cell (mPSC) system with our human (hPSC) system, it was observed that hPSCs appear to produce different endogenous signaling molecules that must be added as exogenous factors for mPSC cultures. Assays were performed to identify key factors dictating non-neural ectoderm induction in hPSC aggregates. It was determined that treating hPSC aggregates with the TGF signaling inhibitor SB-431542 in a chemically-defined medium with or without a low concentration of BMP4 (<5 ng/ml) (CDM; Table 1) produces a surface epithelium of TFAP2^+ (AP2) non-neural ectoderm cells (FIGS. 3A-3F). After a 10-12 day incubation, the aggregates were transferred to a floating culture on low-cell attachment plates in organoid maturation medium (OMM; see Table 2). […]"}, "[2]": {"system": "hPSC-derived skin organoids", "assay": "Skin organoid size with or without insulin in the differentiation medium", "conditions": "LDN/FGF and LDN/FGF/CHIR conditions; n=6 organoids/condition", "source_text": "A-b, Treatment conditions during days 0-12 were: no treatment (NT), LDN (from d4-d12), LDN/FGF (from d4-d12), and LDN/FGF (from d4-d12)+CHIR (from d8-d12). From days 22-55, skin organoids formed in LDN/FGF and LDN/FGF/CHIR conditions with or without insulin.\n(§1) We detached the droplet embedded aggregates from the plate and placed them in a rotating or shaking floating culture in OMM for up to 60 days. By 30-55 days of culture, skin organoids consisted of KRT5^+ basal keratinocytes and PDGFRa^+ dermal fibroblasts (FIGS. 7A-7C). The skin organoids developed as a cyst with an inner layer of epidermis and an outer layer of dermis. We next wondered what mechanism controlled the induction of skin organoids and tested various treatment plans with or without insulin in the CDM during days 0-12 of differentiation (FIGS. 8A-8B). After 12 days, the aggregates were transferred to Matrigel in OMM as previously mentioned. […] Intriguingly, without insulin, the skin organoids were 2.5-3.5 times larger on average than insulin treated aggregates. We chose to continue our analysis with FGF/LDN and FGF/LDN/CHIR (without insulin) treated aggregates."}, "[3]": {"system": "hPSC-derived skin organoids", "assay": "Pigmentation of hair follicles in skin organoids", "conditions": "pre-treated during days 8-12", "experimental": "After 4 days of incubation, 25 μl of CDM containing a 250 ng ml^−1 FGF-2 (50 ng/ml final concentration) and 1 μM LDN-193189 (200 nM final concentration) was added to the pre-existing 100 μl of media in each well. After an additional 4 days (8 days total), 250 of CDM was added to the media. For some experiments, CDM containing 18 μM CHIR99021 (3 μM final concentration; Stemgent) was added to the pre-existing 125 μl of media in each well. During day 12 transfer to OMM, aggregates were resuspended in ice cold undiluted GFR Matrigel and placed in approximately 25 μl droplets on the surface of a 100 mm bacterial culture plate. After at least 30 minutes of incubation at 37° C., the droplets were bathed in 10 ml of OMM. To avoid Matrigel droplet induction, the aggregates can be washed and plated individually into each well of a 24-well low cell adhesion plate in OMM containing 1% GFR Matrigel. After 18 days of differentiation, the CHIR was removed from the medium by washing and the droplet aggregates were moved to a floating culture. Droplets were carefully dislodged using a wide-mouth 1000P tip and transferred to 75 ml of fresh OMM in a 125 ml disposable spinner flask (Corning). Spinner flasks were maintained on an in-incubator stir plate (Thermo Scientific) at 65 RPM for up to 180 days of differentiation. […]"}, "hPSC-derived aggregates [4]": {"system": "hPSC-derived aggregates", "assay": "Structures formed under treatment plans during days 0-12 of differentiation", "conditions": "treatment after initial 10 μM SB+4 ng/ml FGF; with or without insulin", "source_text": "as §1, with “A-b, Treatment conditions during days 0-12 were: no treatment (NT), LDN (from d4-d12), LDN/FGF (from d4-d12), and LDN/FGF (from d4-d12)+CHIR (from d8-d12). From days 22-55, skin organoids formed in LDN/FGF and LDN/FGF/CHIR conditions with or without insulin. […] We detached” for “We detached”"}, "hPSC-derived aggregates [5]": {"system": "hPSC-derived aggregates", "assay": "Mesoderm induction (Brachyury immunohistochemistry) in hPSC aggregates", "protocol": "Representative Brachyury (BRA) immunohistochemistry in day 4 aggregates treated with 10 ng/ml BMP4 (a), 10 μM SB (b), and 10 μM SB+2.5 ng/ml BMP4 (c) on day 0. Scale bars, 50 μm.\nWith human PSCs, TGFβ inhibition and endogenous BMP signaling promotes formation of TFAP2+ ECAD+ surface ectoderm by 3-6 days of differentiation."}},
  "data": [
    {"molecule": "NC(=O)c1ccc(-c2nc(-c3ccc4c(c3)OCO4)c(-c3ccccn3)[nH]2)cc1", "note": "[SB, SB-431542]", "values": [
      {"measurement": "aggregates generating a 3D spheroid comprising TFAP2+KRT5+ keratinocytes", "setting": "[1]", "result": 100, "unit": "%"}
    ]},
    {"molecule": "insulin: insulin component of the chemically-defined differentiation medium (CDM)", "values": [
      {"measurement": "size (long-axis diameter) of skin organoids in insulin-free conditions relative to conditions with insulin", "setting": "[2]", "result": "2.5-3.5 times"}
    ]},
    {"molecule": "Cc1c[nH]c(-c2cnc(NCCNc3ccc(C#N)cn3)nc2-c2ccc(Cl)cc2Cl)n1", "note": "[CHIR99021]", "values": [
      {"measurement": "organoids producing pigmented hair follicles", "setting": "[3]", "result": 75, "unit": "%"}
    ]},
    {"molecule": "c1ccc2c(-c3cnn4cc(-c5ccc(N6CCNCC6)cc5)cnc34)ccnc2c1", "note": "[LDN, LDN-193189]", "values": [
      {"measurement": "structures formed by aggregates", "setting": "hPSC-derived aggregates [4]", "result": "primarily formed keratinocyte cyts"}
    ]},
    {"molecule": "B1", "values": [
      {"measurement": "induction of mesodermal (BRA+) cells", "setting": "hPSC-derived aggregates [5]; BMP treatment alone", "result": "mesoderm is induced"},
      {"measurement": "induction of mesodermal (Brachyury+) cells", "setting": "hPSC-derived aggregates [5]; low concentration of BMP-4 during non-neural ectoderm induction", "result": "not induced"}
    ]}
  ]
}
